One compound from US20170081338A1, “SUBSTITUTED HETEROARYL COMPOUNDS AND METHODS OF USE” (Sunshine Lake Pharma Co., Ltd., priority 2015, published 2017) can be followed below.

In one series the target is T1, Aurora-A (h) (Homo sapiens, UniProt O14965).
T1 construct: purchased Millipore UK Ltd (contract assay service)
T1 sequence (O14965 1-403): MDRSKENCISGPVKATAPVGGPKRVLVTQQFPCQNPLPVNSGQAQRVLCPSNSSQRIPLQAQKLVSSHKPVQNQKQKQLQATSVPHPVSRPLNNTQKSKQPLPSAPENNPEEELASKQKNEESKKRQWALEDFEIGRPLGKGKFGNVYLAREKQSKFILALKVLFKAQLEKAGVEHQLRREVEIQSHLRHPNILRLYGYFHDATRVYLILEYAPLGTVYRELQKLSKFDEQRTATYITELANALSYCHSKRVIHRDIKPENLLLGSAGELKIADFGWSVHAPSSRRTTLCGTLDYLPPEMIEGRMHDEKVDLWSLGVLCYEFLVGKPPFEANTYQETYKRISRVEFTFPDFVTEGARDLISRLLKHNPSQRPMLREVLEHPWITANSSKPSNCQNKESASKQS
In words: Aurora-A (h) kinase assay. In kind it is biochemical. In outline: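 Human Aurora-A incubated with 200 μM Kemptide, 10 mM Mg acetate, [γ-33P]ATP in 8 mM MOPS pH 7.0 for 40 min at room temperature; stopped with phosphoric acid, spotted on P30 filtermat and scintillation counted. IC50 from 10-point ½-log dilution series.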

A short description of series [1]: Pharmacokinetics after intravenous and oral administration in rats. In kind it is in vivo. In outline:
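Compounds dosed IV at 0.5, 1 or 2 mg/kg and orally at 0.5, 1, 5 or 10 mg/kg in rats, as solution, suspension or capsule formulations. Serial blood sampled out to 24 h and plasma stored frozen. Plasma levels quantified by LC/MS/MS in ESI MRM mode.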

The target of the next series is T2, Aurora-B (h) (Homo sapiens, UniProt Q96GD4).
T2 construct: purchased Millipore UK Ltd (contract assay service)
T2 sequence (Q96GD4 whole entry): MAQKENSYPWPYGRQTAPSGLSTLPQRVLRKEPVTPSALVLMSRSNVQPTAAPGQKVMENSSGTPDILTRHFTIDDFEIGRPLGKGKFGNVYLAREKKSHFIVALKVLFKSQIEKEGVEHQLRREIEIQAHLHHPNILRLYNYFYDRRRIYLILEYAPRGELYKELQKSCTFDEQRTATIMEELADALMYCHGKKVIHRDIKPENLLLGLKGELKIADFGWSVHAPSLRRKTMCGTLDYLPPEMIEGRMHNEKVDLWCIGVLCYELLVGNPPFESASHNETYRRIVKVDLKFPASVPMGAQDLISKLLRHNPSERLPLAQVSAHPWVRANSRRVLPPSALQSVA
Kind of series: Aurora-B (h) kinase assay. In kind it is biochemical. The protocol: (§1) Kinase assays can be performed by measurement of incorporation of γ-^33P ATP into immobilized myelin basic protein (MBP). High binding white 384 well plates (Greiner) are coated with MBP (Sigma #M-1891) by incubation of 60 μL/well of 20 μg/mL MBP in Tris-buffered saline (TBS; 50 mM Tris pH 8.0, 138 mM NaCl, 2.7 mM KCl) for 24 h at 4° C. Plates are washed 3× with 100 μL TBS. Kinase reactions are carried out in a total volume of 34 μL in kinase buffer (according to the need to make, for example, 5 mM Hepes pH 7.6, 15 mM NaCl, 0.01% bovine gamma globulin (Sigma #1-5506), 10 mM MgCl2, 1 mM DTT, 0.02% TritonX-100). Compound dilutions are performed in DMSO and added to assay wells to a final DMSO concentration of 1%. Each data point is measured in duplicate, and at least two duplicate assays are performed for each individual compound determination. Enzyme is added to final concentrations of 10 nM or 20 nM, for example. A mixture of unlabeled ATP and γ-^33P ATP is added to start the reaction (2×10^6 cpm of γ-^33P ATP per well (3000 Ci/mmole) and 10 μM unlabeled ATP, typically. The reactions are carried out for 1 h at room temperature with shaking. Plates are washed 7× with TBS, followed by the addition of 50 µL/well scintillation fluid (Wallac). Plates are read using a Wallac Trilux counter. This is only one format of such assays; various other formats are possible, as known to one skilled in the art.
(§2) The above assay procedure can be used to determine the IC50 for inhibition and/or the inhibition constant, Ki. The IC50 is defined as the concentration of compound required to reduce the enzyme activity by 50% under the condition of the assay. The IC50 value is estimated by preparing a 10 point curve using a 1/2 log dilution series (for example, a typical curve may be prepared using the following compound concentrations: 3 μM, 1 μM, 0.3 μM, 0.1 μM, 0.03 μM, 0.01 μM, 0.003 μM, 0.001 μM, 0.0003 μM and 0 μM).
Aurora-B (h) is incubated with 8 mM MOPS pH 7.0, 0.2 mM EDTA, 30 μM AKRRRLSSLRA, 10 mM MgAcetate and [γ-^33PATP] (specific activity approx. 500 cpm/pmol, concentration as required). The reaction is initiated by the addition of the MgATP mix. After incubation for 40 minutes at room temperature, the reaction is stopped by the addition of a 3% phosphoric acid solution. 10 μL of the reaction is then spotted onto a P30 filtermat and washed three times for 5 minutes in 75 mM phosphoric acid and once in methanol prior to drying and scintillation counting.
(§3) The kinase assays described herein were performed at Millipore UK Ltd, Dundee Technology Park, Dundee DD2 1SW, UK.

The target in another series is T3, JAK1 (h) (Homo sapiens, UniProt P23458).
T3 construct: purchased Millipore UK Ltd (contract assay service)
T3 sequence (P23458 whole entry): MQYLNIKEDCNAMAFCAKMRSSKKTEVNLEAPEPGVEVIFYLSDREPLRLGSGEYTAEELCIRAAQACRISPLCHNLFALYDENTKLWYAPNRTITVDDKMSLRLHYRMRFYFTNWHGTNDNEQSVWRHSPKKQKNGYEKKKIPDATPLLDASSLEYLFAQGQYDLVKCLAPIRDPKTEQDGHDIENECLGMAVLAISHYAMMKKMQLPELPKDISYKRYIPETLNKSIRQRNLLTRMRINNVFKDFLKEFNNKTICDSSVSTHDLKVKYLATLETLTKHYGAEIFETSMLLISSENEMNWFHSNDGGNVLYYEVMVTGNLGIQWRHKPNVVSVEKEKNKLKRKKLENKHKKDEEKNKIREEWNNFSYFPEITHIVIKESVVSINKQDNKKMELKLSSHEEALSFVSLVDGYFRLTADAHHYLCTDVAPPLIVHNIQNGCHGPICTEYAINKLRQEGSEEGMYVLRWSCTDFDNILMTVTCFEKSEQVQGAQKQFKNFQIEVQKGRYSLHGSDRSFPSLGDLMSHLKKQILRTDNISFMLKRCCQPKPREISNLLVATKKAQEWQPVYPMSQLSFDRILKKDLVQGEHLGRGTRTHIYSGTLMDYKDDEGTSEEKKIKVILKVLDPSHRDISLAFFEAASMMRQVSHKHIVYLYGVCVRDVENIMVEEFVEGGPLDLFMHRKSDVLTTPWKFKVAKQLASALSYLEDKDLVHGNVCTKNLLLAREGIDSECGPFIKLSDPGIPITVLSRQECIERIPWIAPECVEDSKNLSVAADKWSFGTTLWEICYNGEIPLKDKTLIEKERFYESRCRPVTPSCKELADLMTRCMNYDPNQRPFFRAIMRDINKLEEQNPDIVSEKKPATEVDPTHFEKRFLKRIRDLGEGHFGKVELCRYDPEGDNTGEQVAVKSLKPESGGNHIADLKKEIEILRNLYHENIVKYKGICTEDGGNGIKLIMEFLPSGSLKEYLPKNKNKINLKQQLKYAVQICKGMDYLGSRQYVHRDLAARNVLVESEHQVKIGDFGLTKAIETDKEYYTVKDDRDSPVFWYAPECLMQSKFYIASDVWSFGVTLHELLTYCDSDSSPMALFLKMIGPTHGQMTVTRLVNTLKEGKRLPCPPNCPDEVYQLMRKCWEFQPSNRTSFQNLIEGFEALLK
Kind of series: JAK1 (h) kinase assay. In kind it is biochemical. The protocol: as §1, §2
JAK1 (h) is incubated with 20 mM Tris/HCl pH 7.5, 0.2 mM EDTA, 500 μM GEEPLYWSFPAKKK, 10 mM MgAcetate and [γ-^33P-ATP] (specific activity approx. 500 cpm/pmol, concentration as required). The reaction is initiated by the addition of the MgATP mix. After incubation for 40 minutes at room temperature, the reaction is stopped by the addition of 3% phosphoric acid solution. 10 μL of the reaction is then spotted onto a P30 filtermat and washed three times for 5 minutes in 75 mM phosphoric acid and once in methanol prior to drying and scintillation counting.
as §3

[2] abbreviates: rat, plasma, iv dosing, dose 1 mg/kg.

As a reminder, the IC50 is the concentration at which inhibition is half-maximal. Broadly, the AUC(0-t) is exposure summed from dosing to a finite time, without extrapolation to infinity. By half-life is commonly meant how long it takes for the measured level to halve. The low end stands for rapid decline, the high end for slow decline. As to `Cn1cc(Nc2ncc(Cl)c(N[C@@H]3COC4C3OC[C@@H]4NS(=O)(=O)CC3CCCC3)n2)cn1` (stereo partly drawn) [Ex. 21, N-((3S,6R)-6-((5-chloro-2-((1-methyl-1H-pyrazol-4-yl)amino)pyrimidin-4-yl)amino)hexahydrofuro[3,2-b]furan-3-yl)-1-cyclopentylmethanesulfonamide], the IC50 was 2 nM against Aurora-A (h), 6 nM on Aurora-B (h) and 24 nM against JAK1 (h). The “Clearance (CL) after iv dosing” value in series [1] (iv dosing, dose 1 mg/kg) was 24.8 mL/min/kg. For the same compound, the F in series [1] (oral bioavailability) is 63.7%. Moreover, the AUC(0-t) in series [1] (setting [2]) came out at 680 ng·h/mL. In series [1] (setting [2]), this compound had a half-life of 18 min. Further, in series [1] (rat, plasma, iv dosing, dose 1 mg/kg, read-out: Vss), the Vd turned out to be 0.69 L/kg.
